Experimental data published in ChEMBL document CHEMBL3112553, “Synthesis and biological evaluation of novel C6-amino substituted 4-azasteroidal purine nucleoside analogues” (Bioorg Med Chem Lett, 2014).

Assays:
Format in all cases: functional, cell-based
[1] = system: HeLa; test: Antiproliferative activity against human HeLa cells by MTT assay
[2] = system: MCF7; test: Antiproliferative activity against human MCF7 cells by MTT assay
[3] = system: PC-3; test: Antiproliferative activity against human PC3 cells by MTT assay

| SMILES | IC50 [1] [µM] | IC50 [2] [µM] | IC50 [3] [µM] |
| --- | --- | --- | --- |
| C[C@]12CCC(=O)N[C@@H]1CC[C@@H]1[C@@H]2CC[C@]2(C)O[C@H](n3cnc4c(NCc5ccccc5)ncnc43)CC[C@@H]12 | > 100 | > 100 | 20.6 |
| C[C@]12CCC(=O)N[C@@H]1CC[C@@H]1[C@@H]2CC[C@]2(C)O[C@H](n3cnc4c(NCCO)nc(Cl)nc43)CC[C@@H]12 | > 100 | > 100 | > 100 |
| C[C@]12CCC(=O)N[C@@H]1CC[C@@H]1[C@@H]2CC[C@]2(C)O[C@H](n3cnc4c(N(CCO)CCO)ncnc43)CC[C@@H]12 | > 100 | > 100 | > 100 |
| C[C@]12CCC(=O)N[C@@H]1CC[C@@H]1[C@@H]2CC[C@]2(C)O[C@H](n3cnc4c(N(CCO)CCO)nc(Cl)nc43)CC[C@@H]12 | > 100 | > 100 | > 100 |
| C[C@]12CCC(=O)N[C@@H]1CC[C@@H]1[C@@H]2CC[C@]2(C)O[C@H](n3cnc4c(NCc5ccccc5)nc(Cl)nc43)CC[C@@H]12 | 2.69 | 12.8 | 17.9 |
| Cc1ccc(CNc2ncnc3c2ncn3[C@@H]2CC[C@H]3[C@@H]4CC[C@H]5NC(=O)CC[C@]5(C)[C@H]4CC[C@]3(C)O2)cc1 | 28.2 | 32.7 | 44.2 |
| Cc1ccc(CNc2nc(Cl)nc3c2ncn3[C@@H]2CC[C@H]3[C@@H]4CC[C@H]5NC(=O)CC[C@]5(C)[C@H]4CC[C@]3(C)O2)cc1 | 67.2 | 12.9 | 26.6 |
| COc1ccc(CNc2ncnc3c2ncn3[C@@H]2CC[C@H]3[C@@H]4CC[C@H]5NC(=O)CC[C@]5(C)[C@H]4CC[C@]3(C)O2)cc1 | 38.7 | 60.3 | > 100 |
| COc1ccc(CNc2nc(Cl)nc3c2ncn3[C@@H]2CC[C@H]3[C@@H]4CC[C@H]5NC(=O)CC[C@]5(C)[C@H]4CC[C@]3(C)O2)cc1 | 10.1 | > 100 | > 100 |
| C[C@]12CCC(=O)N[C@@H]1CC[C@@H]1[C@@H]2CC[C@]2(C)O[C@H](n3cnc4c(NCc5ccc(F)cc5)ncnc43)CC[C@@H]12 | > 100 | 34.8 | 91.5 |
| C[C@]12CCC(=O)N[C@@H]1CC[C@@H]1[C@@H]2CC[C@]2(C)O[C@H](n3cnc4c(NCc5ccc(F)cc5)nc(Cl)nc43)CC[C@@H]12 | 59.1 | 13.5 | > 100 |
| CCN(CC)c1ncnc2c1ncn2[C@@H]1CC[C@H]2[C@@H]3CC[C@H]4NC(=O)CC[C@]4(C)[C@H]3CC[C@]2(C)O1 | 33.8 | > 100 | > 100 |
| CCN(CC)c1nc(Cl)nc2c1ncn2[C@@H]1CC[C@H]2[C@@H]3CC[C@H]4NC(=O)CC[C@]4(C)[C@H]3CC[C@]2(C)O1 | 31.1 | 16.4 | 58.1 |
| C[C@]12CCC(=O)N[C@@H]1CC[C@@H]1[C@@H]2CC[C@]2(C)O[C@H](n3cnc4c(NN)ncnc43)CC[C@@H]12 | > 100 | 34.6 | 87.2 |
| C[C@]12CCC(=O)N[C@@H]1CC[C@@H]1[C@@H]2CC[C@]2(C)O[C@H](n3cnc4c(NN)nc(Cl)nc43)CC[C@@H]12 | > 100 | > 100 | 2.99 |
| CN(C)c1ncnc2c1ncn2[C@@H]1CC[C@H]2[C@@H]3CC[C@H]4NC(=O)CC[C@]4(C)[C@H]3CC[C@]2(C)O1 | 70.5 | 57.7 | > 100 |
| CN(C)c1nc(Cl)nc2c1ncn2[C@@H]1CC[C@H]2[C@@H]3CC[C@H]4NC(=O)CC[C@]4(C)[C@H]3CC[C@]2(C)O1 | 61.3 | > 100 | > 100 |
| CC(CO)Nc1nc(Cl)nc2c1ncn2[C@@H]1CC[C@H]2[C@@H]3CC[C@H]4NC(=O)CC[C@]4(C)[C@H]3CC[C@]2(C)O1 (stereo partly specified) | > 100 | > 100 | 2.84 |
| C[C@]12CCC(=O)N[C@@H]1CC[C@@H]1[C@@H]2CC[C@]2(C)O[C@H](n3cnc4c(NCCN)ncnc43)CC[C@@H]12 | 66.2 | > 100 | > 100 |
| C[C@]12CCC(=O)N[C@@H]1CC[C@@H]1[C@@H]2CC[C@]2(C)O[C@H](n3cnc4c(NCCN)nc(Cl)nc43)CC[C@@H]12 | 22.7 | 70.3 | 63.4 |
| C[C@]12CCC(=O)N[C@@H]1CC[C@@H]1[C@@H]2CC[C@]2(C)O[C@H](n3cnc4c(NCCO)ncnc43)CC[C@@H]12 | > 100 | > 100 | 49.2 |
| CC(CO)Nc1ncnc2c1ncn2[C@@H]1CC[C@H]2[C@@H]3CC[C@H]4NC(=O)CC[C@]4(C)[C@H]3CC[C@]2(C)O1 (stereo partly specified) | > 100 | > 100 | 15.8 |
